From patent US11192888B2, “Antibacterial compounds” (priority 2017, dated 2021)
Values after ≈ are worked out from the molar mass of the structure shown. Values joined by “and” are separate entries in the source; they are usually repeats but may differ in a detail not shown here. Identical values can stand only once. Like-named read-outs stand apart in the source and are kept apart here. *1 amine or outer side, *2 acyl side, *3 side chain or, on linkers, in order; H or OH if unused. Where a SMILES comes first, the peptide text is derived from it. [ ]: non-standard residue; d: D form. dAla(ψthiazole) = C[C@@H](N[*:1])c1nc(C(=O)[*:2])cs1; Trp(4-Br) = N[C@@H](Cc1c[nH]c2cccc(Br)c12)C(=O)O; Dhb = C/C=C(\N)C(=O)O; Sar = CNCC(=O)O

Key:
[1] = system: Pseudomonas aeruginosa ATCC 27853
[2] = system: Actinomyces viscosus DSM 43327
[3] = system: C. difficile BI1 (BI/NAP1, ribotype 027); experiment: Hamster model of C. difficile-associated disease; type: in vivo, Golden Syrian hamsters
[4] = system: Pseudomonas aeruginosa NCTC 13437
[5] = system: Enterococcus faecium NCTC 12204
[6] = system: Bifidobacterium breve ATCC 15700
[7] = system: Proteus mirabilis DSM 30116
[8] = mice
Description: In this study, a single oral dose of compound 3 in 0.5% w/v aqueous methylcellulose at 5 mg/kg was administered to nine mice in a 10 mL/kg dosing volume and housed in metabolism cages. Following administration of the compound, serial blood samples of 50 μL was taken from the lateral tail vein at each of 7 post-dosing time-points (0.25, 0.5, 1, 2, 4, 7 and 24 h). Whole blood samples were then diluted 1:1 with water and two 40 μL aliquots were pipetted into duplicate 96 well plate tubes. At the end of 24 h, all faecal samples were collected and pooled. A quantitative bioanalysis by LC-MS/MS of the blood and faecal levels of compound 3 was carried out to determine the oral absorbability and gastrointestinal metabolic stability of compound 3.
To evaluate the metabolic stability of orally administered compound 3, metabolite profiling of the faecal sample was performed.

[9] = system: Clostridium ramosum DSM 1402
[10] = system: Bacteroides fragilis ATCC 25285; details: Bacteroides fragilis, ATCC25285
[11] = system: Corynebacterium jeikeium NCTC 11914
[12] = system: Escherichia coli ATCC 25922
[13] = system: Propionibacterium acnes ATCC 6919
[14] = system: Clostridium difficile strains (21 clinical, 7 reference)
[15] = system: C. difficile ATCC 43255 (aka VPI 10463; ribotype 087); experiment: Mouse model of C. difficile-associated disease; type: in vivo, C57BL/6 mice
[16] = system: Enterococcus faecalis ATCC 29212
[17] = system: Lactobacillus rhamnosus ATCC 53103
[18] = system: Staphylococcus aureus ATCC 29213
[19] = system: Corynebacterium urealyticum NCTC 12011
[20] = system: 23 representatives of normal gut flora; experiment: CLSI MIC, whole panel of representative gut bacteria; type: cell-based; details: at 64 μg/mL
[21] = system: Citrobacter koseri Clinical
[22] = system: Clostridium innocuum DSM 1286
[23] = system: Clostridium perfringens NCTC 8237
[24] = system: Clostridium sordellii ATCC 9714; experiment: CLSI MIC, representative gut bacteria; type: cell-based
Description: (§1) Comparative in vitro bacterial susceptibility to compounds 3, 9 and 10, vancomycin and metronidazole was determined using methods according to the Clinical and Laboratory Standard Institute (CLSI) approved guidelines (M7-A10, M11-A7 or M45-A2) for anaerobic and aerobic organisms.

[25] = system: Clostridium difficile ATCC 43255; experiment: CLSI MIC, representative gut bacteria; type: cell-based
Description: as §1

## C/C=C1\NC(=O)[C@@H](C)NC(=O)CNC(=O)[C@H](Cc2c[nH]c3cccc(Br)c23)NC(=O)[C@H](Cc2c[nH]c3ccccc23)NC(=O)c2csc(n2)[C@@H](C)NC(=O)CN(C)C1=O [Compound 10, Cyclo[D-Ala-Thz-Trp-Trp(4-Br)-Gly-D-Ala-Dhb-Sar]] (cyclo([Dhb][Sar][dAla(ψthiazole)]W[Trp(4-Br)]G[dA]))
B. multivorans ATCC17616; ATCC17616, 25 h
  IC50: 0.84 ± 0.1 µM
B. multivorans ATCC17616; against B. multivorans
  times more potent than Argyrin A: 4 to 5
[1]
  MIC: >64 µg/mL
[2]
  MIC: 8 µg/mL (≈ 9.01 µM)
[3]; 0.2 mg/kg
  hamsters that succumbed to the disease within 36 hours post-infection: 100%
[3]; 0.2 mg/kg oral twice daily for 5 days
  Mean survival: 35.75 h
[3]; 1.0 mg/kg and 2.5 mg/kg twice daily
  animals reaching the end of the study at day-21 post-infection: 10%
[3]; 1.0 mg/kg oral twice daily for 5 days
  Mean survival: 155 h and 154.63 h
[3]; 1.0 mg/kg twice daily
  average survival: 6.5 days
  increase in survival time compared to vehicle control: 4.7 fold
[3]; 2.5 mg/kg oral twice daily for 5 days
  Mean survival: 206 h and 205.92 h
[3]; 2.5 mg/kg twice daily
  average survival: 8.5 days
  increase in survival time compared to vehicle control: 6.3 fold
  survival at day 6 post-infection: 100%
[3]; 0.2, 1.0 and 2.5 mg/kg, non-optimised doses
  survival time compared to the vehicle control: significant dose dependent increase in survival time
[4]
  MIC: >64 µg/mL
[5]
  MIC: >64 µg/mL
[6]
  MIC: >64 µg/mL
[7]
  MIC: >64 µg/mL
[8]; oral 5 mg/kg, 24 h
  compound recovered from pooled faeces: up to 90%
[8]; single 5 mg/kg oral dose
  faecal concentration, times above the MIC against C. difficile: more than 200
[9]
  MIC: >64 µg/mL
[10]
  MIC: > 64 µg/mL
P. aeruginosa PAO1; PAO1
  activity against P. aeruginosa in comparison to the Dha containing compound 3: three-fold increase in activity
P. aeruginosa PAO1; PAO1, 13 h
  IC50: 3.7 ± 1 µM
P. aeruginosa PAO1; PAO1, 13 h, 100
  % Growth inhibition at 100 μM: 90.6 ± 1.3%
P. aeruginosa PAO1; against P. aeruginosa
  times more potent than Argyrin A: 4 to 5
[11]
  MIC: >64 µg/mL
[12]
  MIC: >64 µg/mL
[13]
  MIC: >64 µg/mL
[14]; 28 C. difficile strains
  MIC40: 0.25 µg/mL (≈ 0.282 µM)
  MIC50: 0.50 µg/mL (≈ 0.563 µM)
  MIC90: 0.50 µg/mL (≈ 0.563 µM)
[14]; C. difficile strain 630 (ribotype 012)
  MIC: 0.25 µg/mL (≈ 0.282 µM)
[14]; C. difficile strain ATCC 9689 (ribotype 001)
  MIC: 0.5 µg/mL (≈ 0.563 µM)
[14]; C. difficile strain ATCC 13366
  MIC: 1 µg/mL (≈ 1.13 µM)
[14]; C. difficile strain ATCC 43255
  MIC: 0.25 µg/mL (≈ 0.282 µM)
[14]; C. difficile strain ATCC 700057 (ribotype 038)
  MIC: 0.25 µg/mL (≈ 0.282 µM)
[14]; C. difficile strain ATCC BAA 1875 (ribotype 078)
  MIC: 0.5 µg/mL (≈ 0.563 µM)
[14]; C. difficile strain BI1-FDX^R
  MIC: 0.25 µg/mL (≈ 0.282 µM)
[14]; C. difficile strain Clin. 1
  MIC: 0.25 µg/mL (≈ 0.282 µM)
[14]; C. difficile strain Clin. 2
  MIC: 0.5 µg/mL (≈ 0.563 µM)
[14]; C. difficile strain Clin. 3
  MIC: 0.25 µg/mL (≈ 0.282 µM)
[14]; C. difficile strain Clin. 5
  MIC: 0.5 µg/mL (≈ 0.563 µM)
[14]; C. difficile strain Clin. 6
  MIC: 0.5 µg/mL (≈ 0.563 µM)
[14]; C. difficile strain Clin. 7
  MIC: 0.25 µg/mL (≈ 0.282 µM)
[14]; C. difficile strain Clin. 8
  MIC: 0.5 µg/mL (≈ 0.563 µM)
[14]; C. difficile strain Clin. 9
  MIC: 0.5 µg/mL (≈ 0.563 µM)
[14]; C. difficile strain Clin. 10
  MIC: 0.25 µg/mL (≈ 0.282 µM)
[14]; C. difficile strain Clin. 11
  MIC: 0.5 µg/mL (≈ 0.563 µM)
[14]; C. difficile strain Clin. 12
  MIC: 0.25 µg/mL (≈ 0.282 µM)
[14]; C. difficile strain Clin. 13
  MIC: 0.5 µg/mL (≈ 0.563 µM)
[14]; C. difficile strain Clin. 14
  MIC: 0.5 µg/mL (≈ 0.563 µM)
[14]; C. difficile strain Clin. 15
  MIC: 0.5 µg/mL (≈ 0.563 µM)
[14]; C. difficile strain Clin. 16
  MIC: 0.25 µg/mL (≈ 0.282 µM)
[14]; C. difficile strain Clin. 18
  MIC: 0.5 µg/mL (≈ 0.563 µM)
[14]; C. difficile strain Clin. 20
  MIC: 0.25 µg/mL (≈ 0.282 µM)
[14]; C. difficile strain Clin. 21
  MIC: 0.5 µg/mL (≈ 0.563 µM)
[14]; C. difficile strain Clin. 22
  MIC: 0.5 µg/mL (≈ 0.563 µM)
[14]; C. difficile strain Clin. 23
  MIC: 0.5 µg/mL (≈ 0.563 µM)
[14]; C. difficile strain Clin. 24
  MIC: 0.25 µg/mL (≈ 0.282 µM)
[14]; at 0.25 μg/mL
  share of the C. difficile strains tested that are susceptible: 43%
[14]; range over strains
  MIC against C. difficile: 0.25 to 0.50 µg/mL
[15]; 1 mg/kg
  survival to the end of the study at day-21 post-infection: 80%
[15]; 1 mg/kg oral BD for 5 days
  Mean survival: 504.00 h
[15]; 2.5 mg/kg
  survival to the end of the study at day-21 post-infection: 70%
[15]; 2.5 mg/kg oral BD for 5 days
  Mean survival: 504.00 h
[15]; 5 mg/kg
  reduction in C. difficile spore burden in the caecum vs vehicle controls: 1.73 Log10 spore/mL
  reduction in C. difficile spore burden in the colon vs vehicle controls: 1.11 Log10 spore/mL
  survival to the end of the study at day-21 post-infection: 90%
[15]; 5 mg/kg oral BD for 5 days
  Mean survival: 504.00 h
[16]
  MIC: >64 µg/mL
[17]
  MIC: >64 µg/mL
[18]
  MIC: >64 µg/mL
[19]
  MIC: >64 µg/mL
[20]
  share of the 23 representatives of normal gut flora that are insensitive: Approximately 90%
[21]
  MIC: >64 µg/mL
[22]
  MIC: >64 µg/mL
[23]
  MIC: 64 µg/mL (≈ 72.1 µM)
[24]
  MIC: 1.0 µg/mL (≈ 1.13 µM)
[25]
  fold more potent against C. difficile ATCC 43255 compared to Bacteroides fragilis: at least 256 fold
[25]; Clostridium difficile ATCC 43255
  MIC: 0.25 µg/mL (≈ 0.282 µM)
